Laboratory results reported in patent US20090042964A1, “AMINO-5-[SUBSTITUTED-4-(DIFLUOROMETHOXY)PHENYL]-5-PHENYLIMIDAZOLONE COMPOUNDS AS BETA-SECRETASE INHIBITORS” (Wyeth, priority 2007, published 2009).
Read-outs that look alike come from different tables or passages of the source.

Target: human BACE1 (Homo sapiens, UniProt P56817)
Experiment: Fluorescent kinetic assay, evaluation of BACE1 binding affinity of test compounds
Assay type: biochemical
Settings: 10 nM human BACE1, 25 μM substrate WABC-6, pH 4.5, room temperature
How it was run: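 Kinetic fluorescence assay: enzyme added last to inhibitor and substrate mix, reading started immediately; substrate at 100 μM working dilution (25 μL in 100 μL total). Buffer 66.7 mM Na-acetate pH 4.5 with 0.0667% CHAPS for inhibitor and enzyme dilutions; enzyme stock quantified at 280 nm.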

Chain of human BACE1 (P56817 46-501): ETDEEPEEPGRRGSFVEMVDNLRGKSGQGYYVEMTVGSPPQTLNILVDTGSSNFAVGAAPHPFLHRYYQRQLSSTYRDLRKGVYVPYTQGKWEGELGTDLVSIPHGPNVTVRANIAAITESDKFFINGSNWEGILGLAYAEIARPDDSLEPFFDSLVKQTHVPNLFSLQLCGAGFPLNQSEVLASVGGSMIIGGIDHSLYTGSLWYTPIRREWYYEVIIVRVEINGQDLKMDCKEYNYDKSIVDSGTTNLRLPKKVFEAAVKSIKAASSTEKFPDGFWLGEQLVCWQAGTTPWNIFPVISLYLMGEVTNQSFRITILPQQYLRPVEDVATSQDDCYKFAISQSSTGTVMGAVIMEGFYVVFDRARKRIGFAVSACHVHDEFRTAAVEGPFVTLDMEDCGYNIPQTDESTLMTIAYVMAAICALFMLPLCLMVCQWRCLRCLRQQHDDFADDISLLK

Row | Molecule | IC50 (BACE1 IC50 μM) [µM] | IC50 (read-out: BACE1 IC50) [µM]
1 | C=Cc1cc(C2(c3ccccc3)N=C(N)N(C)C2=O)ccc1OC(F)F (centres unmarked) [Example 11, 2-Amino-5-[4-(difluoromethoxy)-3-vinylphenyl)-3-methyl-5-phenyl-3,5-dihydro-4H-imidazol-4-one] | 0.11 to 1 | –
2 | CCc1cc([C@]2(c3ccc(F)c(C#CCC(C)C)c3)N=C(N)N(C)C2=O)ccc1OC(F)F [Example 150, (5R)-2-Amino-5-[4-(difluoromethoxy)-3-ethylphenyl]-5-[4-fluoro-3-(4-methylpent-1-yn-1-yl)phenyl]-3-methyl-3,5-dihydro-4H-imidazol-4-one] | – | < 0.1
3 | COc1ccc(C2(c3ccc(OC(F)F)c(C)c3)N=C(N)N(C)C2=O)cc1C#N (centres unmarked) [Example 21, 5-{2-Amino-4-[4-(difluoromethoxy)-3-methylphenyl]-1-methyl-5-oxo-4,5-dihydro-1H-imidazol-4-yl}-2-methoxybenzonitrile] | 0.11 to 1 | –
4 | Cc1cc(C2(c3ccc(F)c(/C=C/CCF)c3)N=C(N)N(C)C2=O)ccc1OC(F)F (centres unmarked) [Example 58, 2-Amino-5-[4-(difluoromethoxy)-3-methylphenyl]-5-[4-fluoro-3-((E)-4-fluorobut-1-enyl)phenyl]-3-methyl-3,5-dihydro-4H-imidazol-4-one] | – | < 0.1
5 | Cc1cc(C2(c3cccc(C#CCF)c3)N=C(N)N(C)C2=O)ccc1OC(F)F (centres unmarked) [Example 196, 2-amino-5-[4-(difluoromethoxy)-3-methylphenyl]-5-[3-(3-fluoroprop-1-yn-1-yl)phenyl]-3-methyl-3,5-dihydro-4H-imidazol-4-one] | – | < 0.1
6 | CN1C(=O)[C@](c2cccc(Br)c2)(c2ccc(OC(F)F)c(C3CC3)c2)N=C1N (single isomer, unassigned) [Example 165] | – | < 0.1
7 | CC(C)c1cc(C2(c3ccccc3)N=C(N)N(C)C2=O)ccc1OC(F)F (stereo in doubt) [Example 138, (5R)-2-Amino-5-[4-(difluoromethoxy)-3-isopropylphenyl]-3-methyl-5-phenyl-3,5-dihydro-4H-imidazol-4-one] | – | < 0.1
8 | COC/C=C/c1cccc(C2(c3ccc(OC(F)F)c(C)c3)N=C(N)N(C)C2=O)c1 (centres unmarked) [Example 62, 2-Amino-5-[4-(difluoromethoxy)-3-methylphenyl]-5-[3-((E)-3-methoxyprop-1-enyl)phenyl]-3-methyl-3,5-dihydro-4H-imidazol-4-one] | – | < 0.1
9 | C#Cc1cccc(C2(c3ccc(OC(F)F)c(C4CC4)c3)N=C(N)N(C)C2=O)c1 (centres unmarked) [Example 167, 2-amino-4-(3-cyclopropyl-4-(difluoromethoxy)phenyl)-4-(3-ethynylphenyl)-1-methyl-1H-imidazol-5(4H)-one] | – | < 0.1
10 | CC(C)C#Cc1cccc([C@@]2(c3ccc(OC(F)F)c(C4CC4)c3)N=C(N)N(C)C2=O)c1 (single isomer, unassigned) [Example 174] | – | < 0.1
11 | 2-Amino-5-[4-(difluoromethoxy)-3-(fluoromethyl)phenyl]-3-methyl-5-phenyl-3,5-dihydro-4H-imidazol-4-one [Example 14] | – | 0.11 to 1
12 | CCCOc1cccc(C2(c3ccc(OC(F)F)c(Cl)c3)N=C(N)N(C)C2=O)c1 (centres unmarked) [Example 39, 2-Amino-5-[3-chloro-4-(difluoromethoxy)phenyl]-3-methyl-5-(3-propoxyphenyl)-3,5-dihydro-4H-imidazol-4-one] | – | < 0.1
13 | CCc1cc(C2(c3ccc(F)c(OCC(F)F)c3)N=C(N)N(C)C2=O)ccc1OC(F)F (centres unmarked) [Example 117, 2-Amino-5-[3-(2,2-difluoroethoxy)-4-fluorophenyl]-5-[4-(difluoromethoxy)-3-ethylphenyl]-3-methyl-3,5-dihydro-4H-imidazol-4-one] | – | < 0.1
14 | CCCOc1cc([C@]2(c3ccc(OC(F)F)c(C)c3)N=C(N)N(C)C2=O)ccc1F [Example 115, (5S)-2-Amino-5-[4-(difluoromethoxy)-3-methylphenyl]-5-(4-fluoro-3-propoxyphenyl)-3-methyl-3,5-dihydro-4H-imidazol-4-one] | – | 0.11 to 1
15 | CCc1cc(C2(c3ccc(F)c(C#CC4CC4)c3)N=C(N)N(C)C2=O)ccc1OC(F)F (centres unmarked) [Example 146, 2-Amino-5-[3-(cyclopropylethynyl)-4-fluorophenyl]-5-[4-(difluoromethoxy)-3-ethylphenyl]-3-methyl-3,5-dihydro-4H-imidazol-4-one] | – | < 0.1
16 | CCc1cc([C@@]2(c3ccc(F)c(C#CCC(C)C)c3)N=C(N)N(C)C2=O)ccc1OC(F)F [Example 151, (5S)-2-Amino-5-[4-(difluoromethoxy)-3-ethylphenyl]-5-[4-fluoro-3-(4-methylpent-1-yn-1-yl)phenyl]-3-methyl-3,5-dihydro-4H-imidazol-4-one] | – | > 1
17 | CCc1cc([C@@]2(c3ccc(F)c(OCCC(F)F)c3)N=C(N)N(C)C2=O)ccc1OC(F)F [Example 135, (5S)-2-Amino-5-[4-(difluoromethoxy)-3-ethylphenyl]-5-[3-(3,3-difluoropropoxy)-4-fluorophenyl]-3-methyl-3,5-dihydro-4H-imidazol-4-one] | – | > 1
18 | CN1C(=O)[C@](c2cccc(C#CCCCO)c2)(c2ccc(OC(F)F)c(C3CC3)c2)N=C1N (single isomer, unassigned) [Example 190] | – | < 0.1

Row | Molecule | IC50 (BACE1 IC50 μM) [µM] | IC50 (read-out: BACE1 IC50) [µM]
19 | CN1C(=O)[C@](c2cccc(C#CC3CC3)c2)(c2ccc(OC(F)F)c(C3CC3)c2)N=C1N (single isomer, unassigned) [Example 177] | – | < 0.1
20 | CCc1cc([C@]2(c3ccc(F)c(C#CC(C)C)c3)N=C(N)N(C)C2=O)ccc1OC(F)F [Example 154, (5R)-2-Amino-5-[4-(difluoromethoxy)-3-ethylphenyl]-5-[4-fluoro-3-(3-methylbut-1-yn-1-yl)phenyl]-3-methyl-3,5-dihydro-4H-imidazol-4-one] | – | < 0.1
21 | CN1C(=O)C(c2cccc(OCC(F)F)c2)(c2ccc(OC(F)F)c(Cl)c2)N=C1N (centres unmarked) [Example 38, 2-Amino-5-[3-chloro-4-(difluoromethoxy)phenyl]-5-[3-(2,2-difluoroethoxy)phenyl]-3-methyl-3,5-dihydro-4H-imidazol-4-one] | – | < 0.1
22 | CCCc1cc([C@]2(c3ccccc3)N=C(N)N(C)C2=O)ccc1OC(F)F (single isomer, unassigned) [Example 79] | – | < 0.1
23 | Cc1cc([C@]2(c3ccc(F)c(OCC4CC4)c3)N=C(N)N(C)C2=O)ccc1OC(F)F [Example 106, (5R)-2-Amino-5-[3-(cyclopropylmethoxy)-4-fluorophenyl]-5-[4-(difluoromethoxy)-3-methylphenyl]-3-methyl-3,5-dihydro-4H-imidazol-4-one] | – | < 0.1
24 | CC(C)c1cc(C2(c3ccccc3)N=C(N)N(C)C2=O)ccc1OC(F)F (stereo in doubt) [Example 139, (5S)-2-Amino-5-[4-(difluoromethoxy)-3-isopropylphenyl]-3-methyl-5-phenyl-3,5-dihydro-4H-imidazol-4-one] | – | > 1
25 | CN1C(=O)C(c2ccc(OC(F)F)c(Cl)c2)(c2ccc(F)c(OCCF)c2)N=C1N (centres unmarked) [Example 99, 2-Amino-5-[3-chloro-4-(difluoromethoxy)phenyl]-5-[4-fluoro-3-(2-fluoroethoxy)phenyl]-3-methyl-3,5-dihydro-4H-imidazol-4-one] | – | < 0.1
26 | Cc1cc([C@]2(c3cccc(C#CCF)c3)N=C(N)N(C)C2=O)ccc1OC(F)F [Example 201, (5S)-2-amino-5-[4-(difluoromethoxy)-3-methylphenyl]-5-[3-(3-fluoroprop-1-yn-1-yl)phenyl]-3-methyl-3,5-dihydro-4H-imidazol-4-one] | – | < 0.1
27 | CCOc1cc(C2(c3ccc(OC(F)F)c(Cl)c3)N=C(N)N(C)C2=O)ccc1F (centres unmarked) [Example 96, 2-Amino-5-[3-chloro-4-(difluoromethoxy)phenyl]-5-(3-ethoxy-4-fluorophenyl)-3-methyl-3,5-dihydro-4H-imidazol-4-one] | – | < 0.1
28 | Cc1cc(C2(c3ccccc3)N=C(N)N(C)C2=O)cc(C)c1OC(F)F (centres unmarked) [Example 5, 2-Amino-5-[4-(difluoromethoxy)-3,5-dimethylphenyl]-3-methyl-5-phenyl-3,5-dihydro-4H-imidazol-4-one] | 0.11 to 1 | –
29 | Cc1cc(C2(c3cccc(OCCF)c3)N=C(N)N(C)C2=O)ccc1OC(F)F (centres unmarked) [Example 42] | – | < 0.1
30 | CN1C(=O)[C@@](c2cccc(C#CCCCO)c2)(c2ccc(OC(F)F)c(C3CC3)c2)N=C1N (single isomer, unassigned) [Example 189] | – | 0.11 to 1
31 | CC(C)c1cc(C2(c3ccccc3)N=C(N)N(C)C2=O)ccc1OC(F)F (centres unmarked) [Example 137, 2-Amino-5-[4-(difluoromethoxy)-3-isopropylphenyl]-3-methyl-5-phenyl-3,5-dihydro-4H-imidazol-4-one] | – | 0.11 to 1
32 | Cc1cc([C@@]2(c3cccc(C#CCF)c3)N=C(N)N(C)C2=O)ccc1OC(F)F [Example 200, (5R)-2-amino-5-[4-(difluoromethoxy)-3-methylphenyl]-5-[3-(3-fluoroprop-1-yn-1-yl)phenyl]-3-methyl-3,5-dihydro-4H-imidazol-4-one] | – | > 1
33 | CN1C(=O)[C@](c2cccc(C#CCF)c2)(c2ccc(OC(F)F)c(C3CC3)c2)N=C1N [Example 213, (5S)-2-amino-5-[3-cyclopropyl-4-(difluoromethoxy)phenyl]-5-[3-(3-fluoroprop-1-yn-1-yl)phenyl]-3-methyl-3,5-dihydro-4H-imidazol-4-one] | – | < 0.1
34 | C/C=C/c1cccc(C2(c3ccc(OC(F)F)c(Cl)c3)N=C(N)N(C)C2=O)c1 (centres unmarked) [Example 65, 2-Amino-5-[3-chloro-4-(difluoromethoxy)phenyl]-3-methyl-5-[((E)-3-prop-1-enyl)phenyl]-3,5-dihydro-4H-imidazol-4-one] | – | < 0.1
35 | CN1C(=O)C(c2ccccc2)(c2ccc(OC(F)F)c(CF)c2)N=C1N (centres unmarked) [Example 13, 2-Amino-5-[4-(difluoromethoxy)-3-(fluoromethyl)phenyl]-3-methyl-5-phenyl-3,5-dihydro-4H-imidazol-4-one] | 0.11 to 1 | –
